Results taken from ChEMBL document CHEMBL3797052 (Eur J Med Chem, 2016).

Assays:
SK-MEL-5 = assay: Antiproliferative activity against human SK-MEL-5 cells assessed as cell growth at 10^-7 M after 48 hrs by sulforhodamine B assay; format: functional; details: SK-MEL-5, 48 h, read-out: Activity
[1] = Antiproliferative activity against human SF295 cells assessed as cell growth at 10^-6 M after 48 hrs by sulforhodamine B assay; format: functional; details: SF-295, 48 h, read-out: Activity
KM12 [2] = assay: Antiproliferative activity against human KM12 cells assessed as growth inhibition after 48 hrs by sulforhodamine B assay; format: functional; details: KM12, 48 h
CYP2C9 = CYP2C9 (Homo sapiens, UniProt P11712); assay: Inhibition of recombinant human CYP2C9 assessed as remaining enzyme activity using CYP2C9 green as substrate at 10 uM after 5 mins in presence of NADP by fluorescence plate reader analysis; format: ADME; details: recombinant human CYP2C9, probe CYP2C9 green, read-out: Activity
Sequence of CYP2C9 (P11712 whole entry): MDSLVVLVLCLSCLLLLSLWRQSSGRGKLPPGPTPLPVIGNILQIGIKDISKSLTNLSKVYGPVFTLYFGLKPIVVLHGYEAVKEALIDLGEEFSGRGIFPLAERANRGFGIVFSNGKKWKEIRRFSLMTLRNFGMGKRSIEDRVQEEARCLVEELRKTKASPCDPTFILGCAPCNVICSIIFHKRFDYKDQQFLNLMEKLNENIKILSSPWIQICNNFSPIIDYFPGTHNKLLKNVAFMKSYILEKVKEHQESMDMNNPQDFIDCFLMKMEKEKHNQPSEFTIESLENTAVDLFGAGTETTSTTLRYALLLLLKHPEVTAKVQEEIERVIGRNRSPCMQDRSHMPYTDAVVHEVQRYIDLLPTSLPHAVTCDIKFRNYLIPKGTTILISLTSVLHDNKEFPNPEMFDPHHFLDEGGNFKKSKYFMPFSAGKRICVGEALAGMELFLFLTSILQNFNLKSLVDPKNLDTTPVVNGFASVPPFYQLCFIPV

[3] = Antiproliferative activity against human MOLT4 cells assessed as cell growth at 10^-6 M after 48 hrs by sulforhodamine B assay; format: functional; details: MOLT-4, 48 h, read-out: Activity
[4] = Antiproliferative activity against human RXF393 cells assessed as growth inhibition after 48 hrs by sulforhodamine B assay; format: functional; details: RXF 393, 48 h
SR = assay: Antiproliferative activity against human SR cells assessed as cell growth at 10^-8 M after 48 hrs by sulforhodamine B assay; format: functional; details: read-out: Activity
[5] = Antiproliferative activity against human RPMI8226 cells assessed as cell growth at 10^-7 M after 48 hrs by sulforhodamine B assay; format: functional; details: RPMI-8226, 48 h, read-out: Activity
MDA-MB-468 = assay: Antiproliferative activity against human MDA-MB-468 cells assessed as growth inhibition after 48 hrs by sulforhodamine B assay; format: functional; details: MDA-MB-468, 48 h
[6] = Antiproliferative activity against human Hs 578T cells assessed as cell growth at 10^-7 M after 48 hrs by sulforhodamine B assay; format: functional; details: read-out: Activity
SN12C [7] = assay: Antiproliferative activity against human SN12C cells assessed as cell growth at 10^-7 M after 48 hrs by sulforhodamine B assay; format: functional; details: read-out: Activity
[8] = Antiproliferative activity against human SNB75 cells assessed as cell growth at 10^-6 M after 48 hrs by sulforhodamine B assay; format: functional; details: SNB-75, 48 h, read-out: Activity
[9] = Antiproliferative activity against human HCT15 cells assessed as cell growth at 10^-6 M after 48 hrs by sulforhodamine B assay; format: functional; details: HCT-15, 48 h, read-out: Activity
[10] = Antiproliferative activity against human OVCAR8 cells assessed as growth inhibition after 48 hrs by sulforhodamine B assay; format: functional; details: OVCAR-8, 48 h
MDA-MB-435 [11] = assay: Antiproliferative activity against human MDA-MB-435 cells assessed as growth inhibition after 48 hrs by sulforhodamine B assay; format: functional; details: MDA-MB-435, 48 h
NCI-H226 = assay: Antiproliferative activity against human NCI-H226 cells assessed as cell growth at 10^-7 M after 48 hrs by sulforhodamine B assay; format: functional; details: NCI-H226, 48 h, read-out: Activity
M14 = assay: Antiproliferative activity against human M14 cells assessed as cell growth at 10^-8 M after 48 hrs by sulforhodamine B assay; format: functional; details: M14, 48 h, read-out: Activity
SN12C [12] = assay: Antiproliferative activity against human SN12C cells assessed as growth inhibition after 48 hrs by sulforhodamine B assay; format: functional
KM12 [13] = assay: Antiproliferative activity against human KM12 cells assessed as cell growth at 10^-4 M after 48 hrs by sulforhodamine B assay; format: functional; details: KM12, 48 h, read-out: Activity
Malme-3M = assay: Antiproliferative activity against human MALME-3M cells assessed as cell growth at 10^-8 M after 48 hrs by sulforhodamine B assay; format: functional; details: read-out: Activity
[14] = Antiproliferative activity against human SKOV3 cells assessed as growth inhibition after 48 hrs by sulforhodamine B assay; format: functional; details: SK-OV-3, 48 h
[15] = target: RAF proto-oncogene serine/threonine-protein kinase (Homo sapiens, UniProt P04049); assay: Inhibition of human CRAF at 10 uM measured after 40 mins by scintillation counting
Sequence of RAF proto-oncogene serine/threonine-protein kinase (P04049 whole entry): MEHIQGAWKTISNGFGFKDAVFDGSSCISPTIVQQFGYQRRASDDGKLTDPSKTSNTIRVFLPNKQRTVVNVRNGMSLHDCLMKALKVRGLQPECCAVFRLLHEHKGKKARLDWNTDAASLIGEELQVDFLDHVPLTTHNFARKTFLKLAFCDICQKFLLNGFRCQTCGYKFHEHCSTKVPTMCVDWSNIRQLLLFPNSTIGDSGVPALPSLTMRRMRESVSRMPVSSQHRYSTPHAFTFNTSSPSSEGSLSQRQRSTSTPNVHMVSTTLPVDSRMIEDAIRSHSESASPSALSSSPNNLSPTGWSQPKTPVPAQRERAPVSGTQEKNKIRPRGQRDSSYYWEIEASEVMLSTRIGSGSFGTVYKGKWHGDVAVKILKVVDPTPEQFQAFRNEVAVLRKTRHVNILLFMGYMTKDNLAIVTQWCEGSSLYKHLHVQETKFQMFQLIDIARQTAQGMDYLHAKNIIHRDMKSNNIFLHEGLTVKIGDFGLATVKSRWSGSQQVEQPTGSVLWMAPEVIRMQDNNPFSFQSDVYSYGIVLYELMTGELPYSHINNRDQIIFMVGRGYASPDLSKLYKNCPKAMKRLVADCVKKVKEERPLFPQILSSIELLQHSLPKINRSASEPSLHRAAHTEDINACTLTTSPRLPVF

SK-MEL-28 = assay: Antiproliferative activity against human SK-MEL-28 cells assessed as growth inhibition after 48 hrs by sulforhodamine B assay; format: functional; details: SK-MEL-28, 48 h
786-0 = assay: Antiproliferative activity against human 786-0 cells assessed as cell growth at 10^-7 M after 48 hrs by sulforhodamine B assay; format: functional; details: 786-0, 48 h, read-out: Activity
[16] = Antiproliferative activity against human SF268 cells assessed as cell growth at 10^-4 M after 48 hrs by sulforhodamine B assay; format: functional; details: SF-268, 48 h, read-out: Activity
hERG (KCNH2) = hERG (KCNH2) (Homo sapiens, UniProt Q12809); assay: Inhibition of human ERG assessed as reduction in channel current at 100 uM by automated patch-clamp electrophysiology assay
Sequence of hERG (KCNH2) (Q12809 whole entry): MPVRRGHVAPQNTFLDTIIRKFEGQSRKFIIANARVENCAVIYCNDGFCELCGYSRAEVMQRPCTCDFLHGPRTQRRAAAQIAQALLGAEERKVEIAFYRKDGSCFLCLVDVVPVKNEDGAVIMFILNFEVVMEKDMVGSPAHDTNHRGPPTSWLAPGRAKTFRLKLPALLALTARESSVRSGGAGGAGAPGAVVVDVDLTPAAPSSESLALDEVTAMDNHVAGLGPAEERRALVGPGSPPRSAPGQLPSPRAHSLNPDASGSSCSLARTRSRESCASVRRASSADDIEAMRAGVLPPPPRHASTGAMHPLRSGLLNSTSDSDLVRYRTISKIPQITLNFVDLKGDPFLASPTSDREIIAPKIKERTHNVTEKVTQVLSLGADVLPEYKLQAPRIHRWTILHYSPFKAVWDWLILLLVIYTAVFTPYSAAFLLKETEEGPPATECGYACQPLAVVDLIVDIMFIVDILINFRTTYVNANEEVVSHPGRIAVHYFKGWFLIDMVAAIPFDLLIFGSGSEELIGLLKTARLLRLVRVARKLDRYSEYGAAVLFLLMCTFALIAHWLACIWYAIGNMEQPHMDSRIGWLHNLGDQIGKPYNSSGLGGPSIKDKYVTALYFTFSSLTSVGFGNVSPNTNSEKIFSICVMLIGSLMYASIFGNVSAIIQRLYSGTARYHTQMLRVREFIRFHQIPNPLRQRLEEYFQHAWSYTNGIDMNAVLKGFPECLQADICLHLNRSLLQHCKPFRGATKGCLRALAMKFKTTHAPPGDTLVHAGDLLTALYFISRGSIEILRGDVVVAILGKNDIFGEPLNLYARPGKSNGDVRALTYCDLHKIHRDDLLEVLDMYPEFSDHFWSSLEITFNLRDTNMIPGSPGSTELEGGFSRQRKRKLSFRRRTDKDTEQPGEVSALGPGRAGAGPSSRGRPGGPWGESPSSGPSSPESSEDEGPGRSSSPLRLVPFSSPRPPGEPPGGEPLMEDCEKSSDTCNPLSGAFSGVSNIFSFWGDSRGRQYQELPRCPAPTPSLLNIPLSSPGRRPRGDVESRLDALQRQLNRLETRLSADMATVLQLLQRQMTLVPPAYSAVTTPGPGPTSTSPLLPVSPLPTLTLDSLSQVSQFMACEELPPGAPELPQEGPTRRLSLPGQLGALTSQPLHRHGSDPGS

[17] = Antiproliferative activity against human Hs 578T cells assessed as growth inhibition after 48 hrs by sulforhodamine B assay; format: functional
[18] = Antiproliferative activity against human SNB75 cells assessed as cell growth at 10^-4 M after 48 hrs by sulforhodamine B assay; format: functional; details: SNB-75, 48 h, read-out: Activity
[19] = Antiproliferative activity against human SF268 cells assessed as cell growth at 10^-8 M after 48 hrs by sulforhodamine B assay; format: functional; details: SF-268, 48 h, read-out: Activity
[20] = Antiproliferative activity against human Caki1 cells assessed as cell growth at 10^-6 M after 48 hrs by sulforhodamine B assay; format: functional; details: CAKI-1, 48 h, read-out: Activity
[21] = Antiproliferative activity against human HOP62 cells assessed as growth inhibition after 48 hrs by sulforhodamine B assay; format: functional; details: HOP-62, 48 h
CCRF-CEM = assay: Antiproliferative activity against human CCRF-CEM cells assessed as cell growth at 10^-6 M after 48 hrs by sulforhodamine B assay; format: functional; details: read-out: Activity
[22] = Antiproliferative activity against human HCT116 cells assessed as growth inhibition after 48 hrs by sulforhodamine B assay; format: functional; details: HCT-116, 48 h
MDA-MB-435 [23] = assay: Antiproliferative activity against human MDA-MB-435 cells assessed as cell growth at 10^-4 M after 48 hrs by sulforhodamine B assay; format: functional; details: MDA-MB-435, 48 h, read-out: Activity
[24] = Antiproliferative activity against human DU145 cells assessed as cell growth at 10^-7 M after 48 hrs by sulforhodamine B assay; format: functional; details: DU-145, 48 h, read-out: Activity
[25] = read-out: LC50 (the source's name)

Q: With CNC(=O)c1cc(Oc2ccc3nc(NC(=O)Nc4ccc(Cl)c(Cl)c4)sc3c2)ccn1 as the molecule, how does the growth at 0.1 µM (SK-MEL-5) read?
A: Its growth at 0.1 µM is 100%.

Q: What about the growth at 1 µM [1] of the same molecule?
A: The growth at 1 µM was 79%.

Q: What about the GI50 (KM12 [2]) of the same molecule?
A: The GI50 was 3 µM.

Q: And the LC50 (KM12 [2])?
A: The LC50 was greater than 100 µM.

Q: What about the TGI (KM12 [2]) of the same molecule?
A: Its TGI is greater than 100 µM.

Q: What about the activity at 5 min, 10 µM (CYP2C9) of the same molecule?
A: The activity at 5 min, 10 µM was 90%.

Q: What about the growth at 1 µM [3] of the same molecule?
A: Its growth at 1 µM is 99%.

Q: What about the GI50 [4] of the same molecule?
A: The GI50 was 1.84 µM.

Q: And the TGI [4]?
A: Its TGI is 3.65 µM.

Q: What about the CC50 [4, 25] of the same molecule?
A: Its CC50 is 7.24 µM.

Q: What about the growth at 0.01 µM (SR) of the same molecule?
A: Its growth at 0.01 µM is 108%.

Q: And the growth at 0.1 µM [5]?
A: The growth at 0.1 µM was 107%.

Q: And the GI50 (MDA-MB-468)?
A: Its GI50 is 1.97 µM.

Q: What about the TGI (MDA-MB-468) of the same molecule?
A: The TGI was 5.09 µM.

Q: And the CC50 (MDA-MB-468; [25])?
A: The CC50 was greater than 100 µM.

Q: And the growth at 0.1 µM [6]?
A: The growth at 0.1 µM was 108%.

Q: And the growth at 0.1 µM (SN12C [7])?
A: Its growth at 0.1 µM is 107%.

Q: What about the growth at 1 µM [8] of the same molecule?
A: The growth at 1 µM was 87%.

Q: What about the growth at 1 µM [9] of the same molecule?
A: The growth at 1 µM was 91%.

Q: And the GI50 [10]?
A: The GI50 was 2.36 µM.

Q: And the LC50 [10]?
A: Its LC50 is 73.9 µM.

Q: And the TGI [10]?
A: Its TGI is 5.27 µM.

Q: And the GI50 (MDA-MB-435 [11])?
A: The GI50 was 2.02 µM.

Q: What about the TGI (MDA-MB-435 [11]) of the same molecule?
A: Its TGI is 4.62 µM.

Q: And the CC50 (MDA-MB-435 [11]; [25])?
A: The CC50 was greater than 100 µM.

Q: And the growth at 0.1 µM (NCI-H226)?
A: Its growth at 0.1 µM is 106%.

Q: And the growth at 0.01 µM (M14)?
A: The growth at 0.01 µM was 93%.

Q: And the GI50 (SN12C [12])?
A: Its GI50 is 3.92 µM.

Q: What about the TGI (SN12C [12]) of the same molecule?
A: The TGI was greater than 100 µM.

Q: And the CC50 (SN12C [12]; [25])?
A: The CC50 was greater than 100 µM.

Q: What about the growth at 100 µM (KM12 [13]) of the same molecule?
A: The growth at 100 µM was 6%.

Q: And the growth at 0.01 µM (Malme-3M)?
A: The growth at 0.01 µM was 97%.

Q: What about the GI50 [14] of the same molecule?
A: Its GI50 is 2.24 µM.

Q: And the TGI [14]?
A: Its TGI is 4.09 µM.

Q: What about the CC50 [14, 25] of the same molecule?
A: Its CC50 is 7.45 µM.

Q: And the inhibition [15]?
A: Its inhibition is 98.6%.

Q: And the GI50 (SK-MEL-28)?
A: Its GI50 is 1.74 µM.

Q: And the TGI (SK-MEL-28)?
A: Its TGI is 3.56 µM.

Q: And the CC50 (SK-MEL-28; [25])?
A: Its CC50 is 7.31 µM.

Q: And the growth at 0.1 µM (786-0)?
A: The growth at 0.1 µM was 100%.

Q: What about the growth at 100 µM [16] of the same molecule?
A: The growth at 100 µM was -57%.

Q: And the inhibition at 100 µM (hERG (KCNH2))?
A: The inhibition at 100 µM was 47.9%.

Q: And the GI50 [17]?
A: Its GI50 is 2.77 µM.

Q: And the TGI [17]?
A: Its TGI is 6.66 µM.

Q: And the CC50 [17, 25]?
A: Its CC50 is greater than 100 µM.

Q: And the growth at 100 µM [18]?
A: Its growth at 100 µM is -75%.

Q: What about the growth at 0.01 µM [19] of the same molecule?
A: Its growth at 0.01 µM is 96%.

Q: What about the growth at 1 µM [20] of the same molecule?
A: Its growth at 1 µM is 98%.

Q: And the GI50 [21]?
A: The GI50 was 2.24 µM.

Q: What about the LC50 [21] of the same molecule?
A: The LC50 was 7.15 µM.

Q: What about the TGI [21] of the same molecule?
A: Its TGI is 4 µM.

Q: What about the growth at 1 µM (CCRF-CEM) of the same molecule?
A: Its growth at 1 µM is 100%.

Q: And the GI50 [22]?
A: The GI50 was 1.88 µM.

Q: What about the LC50 (concentration killing 50% of the starting cells) [22] of the same molecule?
A: The LC50 (concentration killing 50% of the starting cells) was 11.5 µM.

Q: And the TGI [22]?
A: The TGI was 4.35 µM.

Q: And the growth at 100 µM (MDA-MB-435 [23])?
A: The growth at 100 µM was -30%.

Q: And the growth at 0.1 µM [24]?
A: Its growth at 0.1 µM is 101%.
